Test results reported in US10336726B2, “3-methyl-pyrrolidine-2,5-dione derivatives useful as CGRP receptor antagonists” (Eli Lilly and Company, priority 2017, dated 2019).
Read-outs that look alike come from different tables or passages of the source.

Columns and labels:
[1] = biological target: T1, ABCB1, human P-glycoprotein (Pgp) (Homo sapiens, UniProt P08183); experiment: In vitro determination of efflux by Pgp; bi-directional transport across MDCKII cells; type: in vitro ADME; details: MDCKII cells expressing human ABCB1, 5 μM substrate, 60 min, B-A/A-B Papp ratios with/without inhibitor
T1 construct: host or cells: MDCKII cells
T1 sequence (P08183 whole entry): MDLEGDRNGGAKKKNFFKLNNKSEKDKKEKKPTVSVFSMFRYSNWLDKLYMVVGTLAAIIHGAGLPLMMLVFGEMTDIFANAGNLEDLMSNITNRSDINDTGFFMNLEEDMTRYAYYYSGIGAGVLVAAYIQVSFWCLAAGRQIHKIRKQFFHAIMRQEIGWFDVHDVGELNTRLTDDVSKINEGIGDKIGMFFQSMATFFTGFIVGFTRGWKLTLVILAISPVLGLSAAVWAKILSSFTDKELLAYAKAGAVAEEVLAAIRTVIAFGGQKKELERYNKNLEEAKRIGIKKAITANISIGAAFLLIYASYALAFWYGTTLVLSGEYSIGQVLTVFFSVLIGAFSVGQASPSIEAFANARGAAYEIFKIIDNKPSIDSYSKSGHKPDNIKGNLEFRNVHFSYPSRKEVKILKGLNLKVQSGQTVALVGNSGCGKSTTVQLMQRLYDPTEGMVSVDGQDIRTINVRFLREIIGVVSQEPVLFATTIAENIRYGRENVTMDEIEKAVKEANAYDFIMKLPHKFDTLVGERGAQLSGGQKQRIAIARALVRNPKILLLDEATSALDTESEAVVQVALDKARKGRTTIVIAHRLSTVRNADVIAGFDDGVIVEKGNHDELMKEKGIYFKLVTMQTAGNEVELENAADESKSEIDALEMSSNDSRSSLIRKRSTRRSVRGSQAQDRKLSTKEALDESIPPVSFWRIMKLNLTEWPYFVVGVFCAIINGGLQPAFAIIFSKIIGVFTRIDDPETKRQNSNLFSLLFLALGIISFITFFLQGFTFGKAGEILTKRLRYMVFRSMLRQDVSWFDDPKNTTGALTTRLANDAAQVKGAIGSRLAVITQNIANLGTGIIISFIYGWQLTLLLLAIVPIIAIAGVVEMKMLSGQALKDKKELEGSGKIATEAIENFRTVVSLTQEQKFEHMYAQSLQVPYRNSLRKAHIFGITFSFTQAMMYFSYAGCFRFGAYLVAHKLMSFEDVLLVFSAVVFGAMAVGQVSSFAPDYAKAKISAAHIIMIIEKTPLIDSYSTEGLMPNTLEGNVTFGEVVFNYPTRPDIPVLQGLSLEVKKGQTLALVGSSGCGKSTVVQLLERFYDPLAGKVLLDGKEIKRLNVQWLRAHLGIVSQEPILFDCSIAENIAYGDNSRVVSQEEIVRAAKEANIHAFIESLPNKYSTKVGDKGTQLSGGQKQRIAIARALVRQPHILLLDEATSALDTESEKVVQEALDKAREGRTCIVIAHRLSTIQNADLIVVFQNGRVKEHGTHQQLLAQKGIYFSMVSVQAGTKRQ
Description: In Vitro Determination of Efflux by ABCB1, Human P-Glycoprotein (Pgp)
MDCKII cells stably expressing human wild-type ABCB1 (Pgp) are obtained from the Netherlands Cancer Institute (Amsterdam, The Netherlands). MDCK cells are maintained as described previously (Desai et al., Mol Pharm 10:1249-1261, 2013).
The assay is essentially conducted as described previously (Desai et al., Mol Pharm 10:1249-1261, 2013). Transport is measured in both directions across uninhibited and inhibited cell monolayers using a substrate concentration of 5 μM diluted from a 10 mM DMSO stock solution (final DMSO concentration of 0.05%) and a single 60-min time interval. […] The apparent permeability coefficients (Papp) are estimated as the slope of the mass transported per 60 min relative to the total recovered mass. The basal-to-apical (B-A)/apical-to-basal (A-B) Papp ratios are calculated in the absence or presence of inhibitor in each cell line for net efflux ratio (NER). The NER of the compound of Example 1 for efflux by Pgp is determined to be 1.7.

[2] = Rat plasma and brain homogenate protein binding by equilibrium dialysis; type: in vitro ADME
Description: Determination of Plasma and Brain Protein Binding:
Rat plasma and brain homogenate protein in vitro binding is determined using equilibrium dialysis, as described elsewhere [Zamek-Gliszczynski et al., J Pharm Sci, 101:1932-1940, 2012]. The results are reported as fraction unbound in plasma (fu,plasma) and brain (fu,brain), which are then utilized to calculate Kp,uu,brain, as described in Table 1. Rat fu,plasma and fu,brain of the compound of Example 1 are determined to be 0.071 and 0.043, respectively.

[3] = biological target: T2, hCGRP (human calcitonin gene-related peptide) receptor (Homo sapiens, UniProt O60894+Q16602); experiment: Inhibition of cAMP production by CGRP receptor antagonists in SK-N-MC cells (HTRF); type: cell-based; details: 0.8 nM human CGRP challenge, agonist-corrected IC50, mean±SEM, n=11, read-out: Kb measured at human CGRP
T2 construct: Cultured SK-N-MC neuroblastoma cells that endogenously express the hCGRP receptor (ATCC); host or cells: SK-N-MC neuroblastoma cells
T2 sequence (Q16602 23-461): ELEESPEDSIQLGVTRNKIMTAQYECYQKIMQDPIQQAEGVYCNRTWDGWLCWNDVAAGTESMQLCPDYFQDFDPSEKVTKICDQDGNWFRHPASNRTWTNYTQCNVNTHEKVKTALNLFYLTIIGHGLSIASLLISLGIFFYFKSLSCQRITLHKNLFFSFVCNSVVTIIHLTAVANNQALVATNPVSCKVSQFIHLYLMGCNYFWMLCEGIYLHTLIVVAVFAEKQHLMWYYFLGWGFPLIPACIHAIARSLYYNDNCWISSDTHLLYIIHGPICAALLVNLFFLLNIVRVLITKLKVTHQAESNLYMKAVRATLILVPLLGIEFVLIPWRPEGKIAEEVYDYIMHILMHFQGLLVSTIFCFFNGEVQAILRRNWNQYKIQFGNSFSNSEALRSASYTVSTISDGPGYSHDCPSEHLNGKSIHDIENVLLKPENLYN
T2 sequence (O60894 27-148): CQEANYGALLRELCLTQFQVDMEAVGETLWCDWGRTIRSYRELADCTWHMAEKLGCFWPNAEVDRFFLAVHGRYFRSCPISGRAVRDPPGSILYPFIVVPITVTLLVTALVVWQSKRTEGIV
Source text: Inhibition of cAMP Production by CGRP Receptor Antagonists
The hCGRP (human calcitonin gene-related peptide) receptor is functionally coupled to the Gas proteins. Stimulation of hCGRP results in an increased synthesis of intracellular cAMP and can be blocked by the addition of receptor antagonists. Receptor activity is thus a reflection of the amount of cAMP present within cells which can be detected using standard in vitro technology.
Cultured SK-N-MC neuroblastoma cells that endogenously express the hCGRP receptor (ATCC) are grown in Eagle's Minimum essential medium (HYCLONE™) supplemented with 10% heat-inactivated Fetal bovine serum (FBS; GIBCO®), Non-Essential Amino Acids (GIBCO®), 1 mM sodium pyruvate, 2 mM L-glutamine, 100 U/mL of penicillin, and 10 μg/mL of streptomycin to about 70% confluency. […]
The amount of intracellular cAMP is quantitated using HTRF technology (Cisbio) as per vendor instructions. […] The HTRF signal is immediately detected using an ENVISION® plate reader (Perkin-Elmer) to calculate the ratio of fluorescence at […]. […] Relative EC50 values are calculated from the top-bottom range of the concentration response curve using a four-parameter logistic curve fitting program (ACTIVITYBASE® v5.3.1.22 or GENEDATA SCREENER® v12.0.4), and Kb values are estimated as agonist-corrected IC50 values using the equation: Kb=(IC50)/[1+([Agonist]/EC50)]. […]

[4] = In vivo determination of plasma and brain concentrations and unbound brain-to-plasma partition coefficient (Kp,uu,brain) in rats; details: for concentration at 1 h / concentration at 3 h: male, Sprague-Dawley, oral, 10 mg/kg
Description: In Vivo Determination of Unbound Brain-to-Plasma Partition Coefficient (Kp,uu,brain) in Rats
Unbound brain-to-plasma partition coefficient (Kp,uu,brain) is one of the key pharmacokinetic parameter for evaluating a compound's ability to cross the blood-brain barrier (BBB) (Hammarlund-Udenaes, M.; Friden, M.; Syvanen, S.; Gupta, A. On the Rate and Extent of Drug Delivery to the Brain. Pharm. Res. 2008, 25 (8), 1737-1750).
Animal studies are performed under protocols approved by the Covance Institutional Animal Care and Use Committee. Male Sprague-Dawley rats weighing 250-350 g are obtained from Harlan Sprague Dawley Inc. (Indianapolis, Ind.). Animals have access to food and water ad libitum before and during the study.
Animals each receive 10 mg/kg of the CGRP receptor antagonist compound of Example 1, administered orally in 10 ml/kg of hydroxyethylcellulose 1% w/v/polysorbate 80 0.25% v/v/Antifoam 1510-US 0.05% v/v/in purified water (probe sonicated).
Three animals per time point are used. […] The blood samples are treated with K3-EDTA anticoagulant, and plasma is obtained by centrifugation at 1600 g for 10 minutes. The brain samples are weighed and homogenized, without perfusion. All samples are stored at −70° C. until analysis by LC-MS/MS to determine the concentration of the compound of Example 1 in plasma and brain at each time point.
Kp,uu,brain is calculated for each time point from the expression below where individual components are derived from a combination of in vitro and in vivo measurements carried out as described above:
[formula] where Ctotal,brain, Cu,brain, Ctotal,plasma and Cu,plasma are total and unbound brain and plasma concentrations, and fu,brain and fu,plasma are fractions unbound in brain and plasma, respectively.

net efflux ratio (NER) for efflux by Pgp [1]: 1.7
fraction unbound in brain (fu,brain) ([2]; rat brain homogenate): 0.043
fraction unbound ([2]; rat plasma, read-out: fraction unbound in plasma (fu,plasma)): 0.071
Kb [3]: 570 ± 250 pM
Unbound brain conc. (Cu,brain) ([4]; 1.0 hr post 10 mg/kg oral dose, male Sprague-Dawley rats, using rat fu,brain 0.043, mean ± SD): 41 ± 15 nM
Unbound brain conc. (Cu,brain) ([4]; 3.0 hr post 10 mg/kg oral dose, male Sprague-Dawley rats, using rat fu,brain 0.043, mean ± SD): 22 ± 5 nM
concentration at 1 h ([4]; rat, brain, 1.0 hr post 10 mg/kg oral dose, mean ± SD, read-out: Total brain conc. (Ctotal,brain)): 962 ± 341 nM
concentration at 1 h ([4]; rat, brain, 1.0 hr post 10 mg/kg oral dose, using rat fu,brain 0.043, mean ± SD, read-out: Unbound brain conc. (Cu,brain)): 41 ± 15 nM
concentration at 3 h ([4]; rat, brain, 3.0 hr post 10 mg/kg oral dose, mean ± SD, read-out: Total brain conc. (Ctotal,brain)): 515 ± 111 nM
concentration at 3 h ([4]; rat, brain, 3.0 hr post 10 mg/kg oral dose, using rat fu,brain 0.043, mean ± SD, read-out: Unbound brain conc. (Cu,brain)): 22 ± 5 nM
concentration at 1 h ([4]; rat, plasma, 1.0 hr post 10 mg/kg oral dose, mean ± SD, read-out: Total plasma conc. (Ctotal,plasma)): 655 ± 183 nM
concentration at 1 h ([4]; rat, plasma, 1.0 hr post 10 mg/kg oral dose, using rat fu,plasma 0.071, mean ± SD, read-out: Unbound plasma conc. (Cu,plasma)): 47 ± 13 nM
concentration at 3 h ([4]; rat, plasma, 3.0 hr post 10 mg/kg oral dose, mean ± SD, read-out: Total plasma conc. (Ctotal,plasma)): 368 ± 127 nM
concentration at 3 h ([4]; rat, plasma, 3.0 hr post 10 mg/kg oral dose, using rat fu,plasma 0.071, mean ± SD, read-out: Unbound plasma conc. (Cu,plasma)): 26 ± 9 nM
Kp uu at 1 h ([4]; rat, brain/plasma, 1.0 hr post 10 mg/kg oral dose, male Sprague-Dawley rats, mean ± SD): 0.89 ± 0.17
Kp uu at 3 h ([4]; rat, brain/plasma, 3.0 hr post 10 mg/kg oral dose, male Sprague-Dawley rats, mean ± SD): 0.93 ± 0.43
Compound: Cc1cc(OCc2ccc([C@@H](C)[C@]3(C)CC(=O)NC3=O)cc2)cc(C2CC2)n1 [Example 1, (3S)-3-[(1R)-1-[4-[(2-cyclopropyl-6-methyl-4-pyridyl)oxymethyl]phenyl]ethyl]-3-methyl-pyrrolidine-2,5-dione]
